Like-named read-outs stand apart in the source and are kept apart here. Each block holds one molecule with its values, some of them ahead of it.
Experiments:
[1] = Phase I study Part A, single IV dose, plasma pharmacokinetics; format: in vivo, healthy male and female subjects; settings: for AUC(0-inf) / Cmax / T1/2 / half-life: Geo mean; for Tmax: Median; for pharmacokinetic interaction between ceftaroline fosamil and NXL-104: Phase I Part A, single 600 mg IV doses alone or concomitant
Procedure: (§1) A single center, two-part randomized Phase I Study was conducted to evaluate the safety, tolerability, and pharmacokinetics of single and multiple intravenous doses of ceftaroline fosamil and NXL-104 in healthy male and female subjects, aged 18 through 45 years.
(§2) Part A was an open-label, 3-way crossover, single-dose study to evaluate the safety, tolerability, and pharmacokinetics of ceftaroline and NXL-104 following co-administration of a single intravenous (IV) dose of ceftaroline fosamil and NXL-104 in 12 healthy subjects.
Treatment A: single dose of 600 mg ceftaroline fosamil via IV infusion over one hour.
Treatment B: single dose of 600 mg NXL-104 via IV infusion over one hour.
Treatment C: single dose of 600 mg ceftaroline fosamil and 600 mg NXL-104 via concomitant IV infusion over one hour.
Blood samples were collected at the following times to determine ceftaroline, ceftaroline fosamil, ceftaroline M-1 (metabolite of ceftaroline fosamil), and NXL-104 free-acid plasma concentrations.
Days 1 (Period I), 6 (Period II), and 11 (Period III): in each study period immediately before (within 15 minutes) the start of infusion and after the start of study drug infusion at 20, 40, 60 (immediately before the end of study-drug infusion), 65, and 75 minutes and at 1.5, 2, 3, 4, 6, 8, 12, 18, 24, 36, and 48 hours
The principal parameters describing the pharmacokinetics of ceftaroline, ceftaroline fosamil, ceftaroline M-1 (metabolite of ceftaroline fosamil), and NXL-104 were derived from plasma concentrations using noncompartmental analysis with the software program WinNonlin. Plasma concentrations below the limit of quantification were treated as zero for all PK calculations. The actual sampling times were used in the calculations of PK parameters.
The following PK parameters were determined for ceftaroline, ceftaroline ceftaroline M-1, and NXL-104 free acid: AUC0-t and area under the plasma concentration versus time curve from time zero to infinity (AUC0-∞), Cmax, time of maximum plasma concentration (Tmax), CL, volume of distribution (VA and steady-state volume of distribution (Vss). Minimum plasma concentration (Cmin), accumulation ratio (Rac), and area under the plasma concentration versus time curve during the dosing interval, τ, (AUC0-τ) will be determined following multiple-dose administration.
Because all doses of ceftaroline are expressed in terms of anhydrous, acetate-free ceftaroline fosamil (ceftaroline prodrug, molecular weight=684.68), the following corrections were made to the dose when calculating PK parameters that include doses for ceftaroline (molecular weight=604.70) and ceftaroline M-1 (molecular weight=622.72): Ceftaroline dose=0.883×ceftaroline fosamil dose Ceftaroline M-1 dose=0.909×ceftaroline fosamil dose
The Cmax of ceftaroline, ceftaroline fosamil, ceftaroline M-1, and NXL-104 free acid was determined observationally as the peak concentration for each subject. Tmax was determined as the time corresponding to Cmax.
Area under the plasma concentration versus time curve up to the time corresponding to the last measurable concentration (AUC0-t) was calculated by numeric integration using the linear trapezoidal rule as follows:
Estimates of T1/2 were calculated using the following equation: T1/2=0.693/λz
The AUC0-∞ was calculated according to the following equation: AUC0-∞=AUC0-t+Clast/λz
CL was calculated with the following equation: CL=Doseiv/AUC0-∞
Vz based on the terminal phase was determined as: Vz=Doseiv/λz×AUC0-∞
In part A, PK parameters were compared by analysis of variance using SAS version 9.1.3 on a UNIX operating system. A general linear model with sequence, subject within sequence, treatment, and period as factors was used as the basis for the analysis. […]

[2] = Behaviour of crystalline forms in humid atmosphere; format: physicochemical
Source text: The invention also relates to processes for making a dihydrate form of the sodium salt of (1R,2S,5R)-7-oxo-6-sulphooxy-1,6-diazabicyclo[3.2.1]octane-2-carboxamide called Form III. In exemplary embodiments, crystals of Form II are suspended in water, and the suspension is then left to evaporate slowly in a humid atmosphere. Crystals can also been obtained by trituration of crystals of Form II in water or in an alkanol-water mixture, or by conversion, in a humid atmosphere, of the anhydrous Form I and Form IV to the monohydrated Form II and then to the dihydrated Form III.

[3] = Phase I study, safety and tolerability; format: in vivo, healthy male and female subjects; settings: healthy subjects, IV
Procedure: as §1, §2
The following procedures were performed and recorded at screening: • Collect blood samples for serology testing, hematology evaluation (including CBC, prothrombin time and international normalized ratio [PT/INR], partial thromboplastin time [PTT], free hemoglobin, haptoglobin, and reticulocyte count), and comprehensive metabolic panel • Collect urine for UA (including urine microscopy) and for drugs-of-abuse screen • Perform β-HCG serum pregnancy test (female subjects only) • Calculate CrCl and BMI • Assess vital signs • Perform 12-lead ECG • Perform complete physical examination • Assess prior medications • Record medical and surgical history • Record any spontaneously reported AE or SAE between signing of informed consent and Day —1 for subjects who comply with all screening processes […]

pH of stability samples = format: physicochemical; settings: vial at 25° C./60% RH
[4] = Decarbonyl degradation product of NXL-104 (reverse phase gradient HPLC, UV 195 nm); format: physicochemical; settings: vial at 25° C./60% RH
Procedure: The decarbonyl degradation product of trans-7-oxo-6-(sulphooxy)-1,6-diazabicyclo[3,2,1]octane-2-carboxamide sodium salt was determined by a reverse phase gradient HPLC method with UV detection at 195 nm.
(§3) The following parameters were used for analysis:
(§4) Column: Inertsil ODS-3, 250 mm×4.6 mm, 5 μm
Mobile Phase A: Deionized Water
Mobile Phase B: 50 mM KH2PO4 solution: Acetonitrile, [50:50 (v:v)]
(§5) Column Temperature: 25° C.
(§6) Detector/Setting: UV/195 nm
Run Time (Approximate): 35 minutes
Injector Washing Solution: Acetonitrile:Water, [50:50 (v:v)] (Recommended)
Approximate relative retention time (RRT) for decarbonyl was 0.17.

[5] = Assay for NXL-104 and related substances (reverse phase gradient HPLC, UV 195 nm) on stored samples; format: physicochemical; settings: vial at 25° C./60% RH
Procedure: Assay for NXL-104 and Related Substances
NXL-104 and related substances in compositions comprising trans-7-oxo-6-(sulphooxy)-1,6-diazabicyclo[3,2,1]octane-2-carboxamide sodium salt were determined by a reverse phase gradient HPLC method with UV detection at 195 nm.
as §3, §4
Mobile Phase A: 100 mM KH2PO4 Solution
Mobile Phase B: Acetonitrile: Water, [50:50 (v:v)]
as §5
Autosampler Temperature: 5° C.
as §6
Run Time: about 25 minutes
Injector Washing Solution: Acetonitrile:Water, [10:90 (v:v)]
Approximate relative retention times (RRT) values for trans-7-oxo-6-(sulphooxy)-1,6-diazabicyclo[3,2,1]octane-2-carboxamide sodium salt and disulfate were 1.00 and 0.37.
The stability of amorphous trans-7-oxo-6-(sulphooxy)-1,6-diazabicyclo[3,2,1]octane-2-carboxamide sodium salt stored in a vial stored at 25° C. with a relative humidity of 60% (25° C./60% RH) was evaluated using the NXL-104 assay described above.
NXL-104 and related substances were measured according to the assay described in Example 6.

[6] = Treatment 600 mg Ceftaroline fosamil
[7] = Treatment 600 mg NXL-104 + Ceftaroline fosamil 600 mg
[8] = both sexes, human, plasma, iv, 600 mg, Treatment 600 mg Ceftaroline fosamil
[9] = both sexes, human, plasma, iv, 600 mg, Treatment 600 mg Ceftaroline fosamil, read-out: AUC0-inf
[10] = both sexes, human, plasma, iv, 600 mg, Treatment 600 mg Ceftaroline fosamil, read-out: Cmax
[11] = both sexes, human, plasma, iv, 600 mg, Treatment 600 mg NXL-104 + Ceftaroline fosamil 600 mg
[12] = both sexes, human, plasma, iv, 600 mg, Treatment 600 mg NXL-104 + Ceftaroline fosamil 600 mg, read-out: AUC0-inf
[13] = both sexes, human, plasma, iv, 600 mg, Treatment 600 mg NXL-104 + Ceftaroline fosamil 600 mg, read-out: Cmax
[14] = both sexes, human, plasma, iv, Treatment 600 mg Ceftaroline fosamil, read-out: Tmax

Structure (SMILES): CCO/N=C(\C(=O)N[C@H](C(=O)[O-])[C@@H]1NC(C(=O)[O-])=C(Sc2nc(-c3cc[n+](C)cc3)cs2)CS1)c1nsc(N)n1.[H+] [Ceftaroline M-1]
AUC(0-inf) [1, 6]: 16420 ng·h/mL | Cmax [1, 6]: 3290 ng/mL | T1/2 [1, 6]: 3.75 h | Tmax [1, 6]: 1.08 h | AUC(0-inf) [1, 7]: 15780 ng·h/mL | Cmax [1, 7]: 3210 ng/mL | T1/2 [1, 7]: 3.78 h | Tmax [1, 7]: 1.04 h

Structure (SMILES): CCO/N=C(\C(=O)N[C@@H]1C(=O)N2C(C(=O)[O-])=C(Sc3nc(-c4cc[n+](C)cc4)cs3)CS[C@H]12)c1nsc(N)n1 [Ceftaroline]
half-life [1, 8]: 2.51 h | AUC(0-inf) [1, 9]: 61000 ng·h/mL | Cmax [1, 10]: 24800 ng/mL | half-life [1, 11]: 2.47 h | AUC(0-inf) [1, 12]: 60000 ng·h/mL | Cmax [1, 13]: 26700 ng/mL | Tmax [1, 14]: 1 h

Structure (SMILES): NC(=O)[C@@H]1CC[C@@H]2CN1C(=O)N2OS(=O)(=O)[O-].[Na+] [Form III, trans-7-oxo-6-(sulphooxy)-1,6-diazabicyclo[3,2,1]octane-2-carboxamide sodium salt]
stability at higher humidities [2]: particularly stable

Structure (SMILES): CCO/N=C(\C(=O)N[C@@H]1C(=O)N2C(C(=O)[O-])=C(Sc3nc(-c4cc[n+](C)cc4)cs3)CS[C@H]12)c1nsc(NP(=O)(O)O)n1 [ceftaroline fosamil, (6R,7R)-7-{(2Z)-2-(ethoxyimino)-2-[5-(phosphonoamino)-1,2,4-thiadiazol-3-yl]acetamido}-3-{[4-(1-methylpyridin-1-ium-4-yl)-1,3-thiazol-2-yl]sulfanyl}-8-oxo-5-thia-1-azabicyclo[4.2.0]oct-2-ene-2-carboxylate]
safety [3]: no safety concerns | pharmacokinetic interaction between ceftaroline fosamil and NXL-104 [1]: no pharmacokinetic interactions | half-life [1, 8]: 0.084 h | AUC(0-inf) [1, 9]: 2170 ng·h/mL | Cmax [1, 10]: 2110 ng/mL | half-life [1, 11]: 0.055 h | AUC(0-inf) [1, 12]: 2160 ng·h/mL | Cmax [1, 13]: 2370 ng/mL | Tmax [1, 14]: 0.67 h

Further lines, with some results ahead:

pharmacokinetic interaction between ceftaroline fosamil and NXL-104 [1]: no pharmacokinetic interactions | half-life [1, 11]: 1.63 h | AUC(0-inf) [1, 12]: 51200 ng·h/mL | Cmax [1, 13]: 29100 ng/mL | half-life ([1]; both sexes, human, plasma, iv, 600 mg, Treatment 600 mg NXL-104): 1.64 h | AUC(0-inf) ([1]; both sexes, human, plasma, iv, 600 mg, Treatment 600 mg NXL-104, read-out: AUC0-inf): 51900 ng·h/mL | Cmax ([1]; both sexes, human, plasma, iv, 600 mg, Treatment 600 mg NXL-104, read-out: Cmax): 29500 ng/mL | Tmax ([1]; both sexes, human, plasma, iv, Treatment 600 mg NXL-104, read-out: Tmax): 1 h
Structure (SMILES): NC(=O)[C@@H]1CC[C@@H]2CN1C(=O)N2OS(=O)(=O)[O-].[Na+] [NXL-104, trans-7-oxo-6-(sulphooxy)-1,6-diazabicyclo[3,2,1]octane-2-carboxamide sodium salt]
safety [3]: no safety concerns

pH (pH of stability samples; 1 month): 7.3 | pH (pH of stability samples; 3 months): 7.2 | pH (pH of stability samples; 6 months): 7.3 | pH (pH of stability samples; Initial): 7.0 | Decarbonyl ([4]; 1 month): 0.46% | Decarbonyl ([4]; 3 months): 0.48% | Decarbonyl ([4]; 6 months): 0.33% | Decarbonyl ([4]; Initial): 0.63% | Disulfate ([5]; 1 month): 0.19% | NXL-104 % ([5]; 1 month): 111.3% | Total Impurities, NXL-104 related ([5]; 1 month): 0.89% | Disulfate ([5]; 3 months): 0.17% | NXL-104 % ([5]; 3 months): 108.0% | Total Impurities, NXL-104 related ([5]; 3 months): 0.92% | Disulfate ([5]; 6 months): 0.17% | NXL-104 % ([5]; 6 months): 106.1% | Total Impurities, NXL-104 related ([5]; 6 months): 0.87% | Disulfate ([5]; Initial): 0.19% | NXL-104 % ([5]; Initial): 106.4% | Total Impurities, NXL-104 related ([5]; Initial): 0.90%
Structure (SMILES): NC(=O)[C@@H]1CC[C@@H]2CN1C(=O)N2OS(=O)(=O)[O-].[Na+] [amorphous NXL-104, trans-7-oxo-6-(sulphooxy)-1,6-diazabicyclo[3,2,1]octane-2-carboxamide sodium salt]
